Assay results: patent US20240199647A1, “ANTI-VIRAL COMPOUNDS” (Aligos Therapeutics, Inc., priority 2022, published 2024)
Like-named read-outs stand apart in the source and are kept apart here.

Tests used:
[1] = tested on: SARS-CoV-2 B.1.1.7 lineage; assay: microbe, parasite or virus in culture; type: cell-based; details: Severe acute respiratory syndrome coronavirus 2, Table C, SARS-CoV-2 B.1.1.7 in A549-dual_ACE2_TMPRSS2 cells, read-out: A549-dual_ACE2_TMPRSS2 (EC50)
[2] = Cytotoxicity in HeLa cells without addition of OC43 virus (in parallel); details: human, HeLa cells, without OC43 virus
[3] = tested on: human beta-coronavirus OC43; assay: OC43 Coronavirus Assay in HeLa cells (antiviral, cytopathic effect, cell-titer-glo); type: cell-based; details: Betacoronavirus 1, OC43, HeLa
in vitro = details: human
SARS-Cov-2 3CLpro = SARS-Cov-2 3CLpro (Severe acute respiratory syndrome coronavirus 2, UniProt P0DTD1); assay: biochemical; details: Table A, class symbols, read-out: SARS-Cov-2 (IC50)
[4] = Table B, OC43 coronavirus in HeLa cells, class symbols, read-out: EC50

Row | Compound | EC50 ([1]; class symbols) [nM] | CC50 at 6 days [2] [nM] | EC50 [3, 4] [nM] | CC50 (in vitro) [nM] | IC50 (SARS-Cov-2 3CLpro) [nM] | EC50 ([1]; cells given as a bound) [nM] | EC50 [3] [nM]
1 | CC(C)C[C@](C)(NC(=O)C(F)(F)F)C(=O)N(C)[C@@H](CC1CC1)C(=O)N1C[C@@]2(C[C@H]1C#N)Oc1cc(F)cc(F)c1NC2=O [Compound 100] | 100 to 1000 | > 10000 | < 100 | > 1000 | 20 to 200 | – | –
2 | CN(C(=O)[C@H](CC1CC1)N1CCOC1=O)[C@@H](CC1CC1)C(=O)N1C[C@@]2(C[C@H]1C#N)Oc1cc(F)cc(F)c1NC2=O [Compound 101] | 100 to 1000 | > 10000 | < 100 | > 1000 | 20 to 200 | – | –
3 | COCC[C@H](NC(=O)C(F)(F)F)C(=O)N(C)[C@@H](CC1CC1)C(=O)N1C[C@@]2(C[C@H]1C#N)Oc1cc(F)cc(F)c1NC2=O [Compound 103] | 100 to 1000 | > 10000 | 1000 to 10000 | > 1000 | < 20 | – | –
4 | C[C@H](NC(=O)C(F)(F)F)C(=O)N(C)[C@@H](CC1CC1)C(=O)N1C[C@]2(C[C@H]1C#N)C(=O)NCC2Oc1ccccc1 (stereo partly drawn) [Compound 104] | 100 to 1000 | > 10000 | < 100 | > 1000 | 20 to 200 | – | –
5 | CCN(C(=O)[C@H](C)NC(=O)C(F)(F)F)[C@@H](CC(C)C)C(=O)N1C[C@@]2(C[C@H]1C#N)Oc1cc(F)cc(F)c1NC2=O [Compound 106] | 100 to 1000 | > 10000 | 100 to 1000 | > 1000 | < 20 | – | –
6 | CN(C(=O)[C@@H](CC1CC1)n1cc(C2CC2)nn1)[C@@H](CC1CC1)C(=O)N1C[C@@]2(C[C@H]1C#N)Oc1cc(F)cc(F)c1NC2=O [Compound 107, (R)—N—((S)-1-((2R,5'S)-5′-cyano-5,7-difluoro-3-oxo-3,4-dihydrospiro[benzo[b][1,4]oxazine-2,3′-pyrrolidin]-1′-yl)-3-cyclopropyl-1-oxopropan-2-yl)-3-cyclopropyl-2-(4-cyclopropyl-1H-1,2,3-triazol-1-yl)-N-methylpropanamide] | 100 to 1000 | > 10000 | 1000 to 10000 | > 1000 | < 20 | – | –
7 | CN(C(=O)[C@H](CC1CC1)n1cc(C2CC2)nn1)[C@@H](CC1CC1)C(=O)N1C[C@@]2(C[C@H]1C#N)Oc1cc(F)cc(F)c1NC2=O [Compound 108, (S)—N—((S)-1-((2R,5'S)-5′-cyano-5,7-difluoro-3-oxo-3,4-dihydrospiro[benzo[b][1,4]oxazine-2,3′-pyrrolidin]-1′-yl)-3-cyclopropyl-1-oxopropan-2-yl)-3-cyclopropyl-2-(4-cyclopropyl-1H-1,2,3-triazol-1-yl)-N-methylpropanamide] | < 100 | > 10000 | 100 to 1000 | > 1000 | < 20 | – | –
8 | CN(C(=O)[C@@H]1CC[C@@H](c2ccccc2)N1)[C@@H](CC1CC1)C(=O)N1C[C@@]2(C[C@H]1C#N)Oc1cc(F)cc(F)c1NC2=O [Compound 111, (2S,5S)—N—((S)-1-((2R,5'S)-5′-cyano-5,7-difluoro-3-oxo-3,4-dihydrospiro[benzo[b][1,4]oxazine-2,3′-pyrrolidin]-1′-yl)-3-cyclopropyl-1-oxopropan-2-yl)-N-methyl-5-phenylpyrrolidine-2-carboxamide] | 100 to 1000 | > 10000 | 100 to 1000 | > 1000 | < 20 | – | –
9 | CN(C)C(=O)c1ccc2c(c1)O[C@@]1(C[C@@H](C#N)N(C(=O)[C@H](CC3CC3)N(C)C(=O)[C@H](CC3CC3)NC(=O)C(F)(F)F)C1)C(=O)N2 [Compound 112, (2R,5'S)-5′-cyano-1′-((S)-3-cyclopropyl-2-((S)-3-cyclopropyl-N-methyl-2-(2,2,2-trifluoroacetamido)propanamido)propanoyl)-N,N-dimethyl-3-oxo-3,4-dihydrospiro[benzo[b][1,4]oxazine-2,3′-pyrrolidine]-7-carboxamide] | 100 to 1000 | > 10000 | < 100 | > 1000 | < 20 | – | –
10 | CN(C(=O)[C@H](CC1CC1)NC(=O)C(F)(F)F)[C@@H](CC1CC1)C(=O)N1C[C@@]2(C[C@H]1C#N)Oc1ccccc1C1(CC1)NC2=O [Compound 113] | – | > 10000 | 100 to 1000 | > 1000 | 20 to 200 | > 1000 | –
11 | CN(C(=O)[C@H](CC1CC1)n1cc(-c2ccccc2)nn1)[C@@H](CC1CC1)C(=O)N1C[C@@]2(C[C@H]1C#N)Oc1cc(F)cc(F)c1NC2=O [Compound 114, (S)—N—((S)-1-((2R,5'S)-5′-cyano-5,7-difluoro-3-oxo-3,4-dihydrospiro[benzo[b][1,4]oxazine-2,3′-pyrrolidin]-1′-yl)-3-cyclopropyl-1-oxopropan-2-yl)-3-cyclopropyl-N-methyl-2-(4-phenyl-1H-1,2,3-triazol-1-yl)propenamide] | 100 to 1000 | > 10000 | 100 to 1000 | > 1000 | < 20 | – | –
12 | C[C@H](NC(=O)C(F)(F)F)C(=O)N(C)[C@@H](COC(C)(C)C)C(=O)N1C[C@@]2(C[C@H]1C#N)Oc1cc(F)cc(F)c1NC2=O [Compound 115, (S)—N—((S)-3-(t-butoxy)-1-((2R,5'S)-5′-cyano-5,7-difluoro-3-oxo-3,4-dihydrospiro[benzo[b][1,4]oxazine-2,3′-pyrrolidin]-1′-yl)-1-oxopropan-2-yl)-N-methyl-2-(2,2,2-trifluoroacetamido)propenamide] | 100 to 1000 | > 10000 | 100 to 1000 | > 1000 | < 20 | – | –
13 | CC(C)N1CC2(CC2)C[C@H]1C(=O)N(C)[C@@H](CC1CC1)C(=O)N1C[C@@]2(C[C@H]1C#N)Oc1cc(F)cc(F)c1NC2=O [Compound 116] | 100 to 1000 | > 10000 | 100 to 1000 | > 1000 | < 20 | – | –
14 | CC(C)OC(=O)N[C@@H](C)C(=O)N(C)[C@@H](CC1CC1)C(=O)N1C[C@@]2(C[C@H]1C#N)Oc1cc(F)cc(F)c1NC2=O [Compound 120, isopropyl ((S)-1-(((S)-1-((2R,5'S)-5′-cyano-5,7-difluoro-3-oxo-3,4-dihydrospiro[benzo[b][1,4]oxazine-2,3′-pyrrolidin]-1′-yl)-3-cyclopropyl-1-oxopropan-2-yl)(methyl)amino)-1-oxopropan-2-yl)carbamate] | 100 to 1000 | > 10000 | 100 to 1000 | > 1000 | < 20 | – | –
15 | CN(C(=O)[C@H](CC1CC1)NC(=O)C(F)(F)F)[C@@H](CC1CC1)C(=O)N1C[C@@]2(C[C@H]1C#N)Oc1cccnc1CNC2=O [Compound 121, (S)—N—((S)-1-((2R,5'S)-5′-cyano-3-oxo-4,5-dihydro-3H-spiro[pyrido[2,3-f][1,4]oxazepine-2,3′-pyrrolidin]-1′-yl)-3-cyclopropyl-1-oxopropan-2-yl)-3-cyclopropyl-N-methyl-2-(2,2,2-trifluoroacetamido)propanamide] | 100 to 1000 | > 10000 | < 100 | > 1000 | < 20 | – | –
16 | CN(C(=O)[C@H](CC1CC1)NC(=O)C(F)(F)F)[C@@H](CC1CC1)C(=O)N1C[C@@]2(CC1C#N)Oc1c(C#N)cccc1NC2=O (stereo partly drawn) [Compound 124] | 100 to 1000 | > 10000 | < 100 | > 1000 | < 20 | – | –
17 | CN(C(=O)[C@H](CC1CC1)NC(=O)C(F)(F)F)[C@@H](CC1CC1)C(=O)N1C[C@@]2(C[C@H]1C#N)Oc1c(cccc1-c1ccccc1)NC2=O [Compound 125, (S)—N—((S)-1-((2R,5'S)-5′-cyano-3-oxo-8-phenyl-3,4-dihydrospiro[benzo[b][1,4]oxazine-2,3′-pyrrolidin]-1′-yl)-3-cyclopropyl-1-oxopropan-2-yl)-3-cyclopropyl-N-methyl-2-(2,2,2-trifluoroacetamido)propanamide] | < 100 | > 10000 | < 100 | > 1000 | < 20 | – | –
18 | Cc1cnc2c(c1)NC(=O)[C@]1(C[C@@H](C#N)N(C(=O)[C@H](CC3CC3)N(C)C(=O)[C@H](CC3CC3)NC(=O)C(F)(F)F)C1)O2 [Compound 126, (S)—N—((S)-1-((3R,5'S)-5′-cyano-7-methyl-2-oxo-1,2-dihydrospiro[pyrido[2,3-b][1,4]oxazine-3,3′-pyrrolidin]-1′-yl)-3-cyclopropyl-1-oxopropan-2-yl)-3-cyclopropyl-N-methyl-2-(2,2,2-trifluoroacetamido)propanamide] | 100 to 1000 | > 10000 | < 100 | > 1000 | < 20 | – | –
19 | CN(C(=O)[C@@H]1CCN(C(=O)C(F)(F)F)C1)[C@@H](CC1CC1)C(=O)N1C[C@@]2(C[C@H]1C#N)Oc1cc(F)cc(F)c1NC2=O [Compound 128] | 100 to 1000 | > 10000 | – | > 1000 | 200 to 2000 | – | > 10000
20 | CN(C(=O)[C@H]1CCN(C(=O)C(F)(F)F)C1)[C@@H](CC1CC1)C(=O)N1C[C@@]2(C[C@H]1C#N)Oc1cc(F)cc(F)c1NC2=O [Compound 129] | 100 to 1000 | > 10000 | – | > 1000 | 200 to 2000 | – | > 10000
21 | Cc1c(-c2ccccc2)nn2c1NC(=O)[C@]21C[C@@H](C#N)N(C(=O)[C@H](CC(C)C)N(C)C(=O)[C@H](C)NC(=O)C(F)(F)F)C1 [Compound 130] | 100 to 1000 | > 10000 | 100 to 1000 | > 1000 | 20 to 200 | – | –
